Measurements taken from ChEMBL document CHEMBL1157433, “Design and synthesis of 4-HPR derivatives for rhabdoid tumors” (Bioorg Med Chem Lett, 2008).
The source made the active and inactive calls. The rule behind the calls is not given here.

Tests used:
[1] = (§1) Cytotoxicity against human MON cells after 3 days by MTS assay; type: functional, cell-based
MON = experiment: as §1; type: functional, cell-based
[2] = Homo sapiens, MON, 72 h, read-out: IC50

`CC1=C(/C=C/C(C)=C/C=C/C(C)=C/C(=O)Nc2ccc(O)cc2)C(C)(C)CCC1` (stereo in doubt) [FENRETINIDE] gave an IC50 ([1]; mon, read-out: IC50) of 9 µM.
`CC1=C(/C=C/C(C)=C/C=C/C(C)=C/C(=O)Nc2ccc(CO)cc2)C(C)(C)CCC1` gave an IC50 [1, 2] of 25 µM.
With `CC1=C(/C=C/C(C)=C/C=C/C(C)=C/C(=O)Nc2ccc([N+](=O)[O-])cc2)C(C)(C)CCC1` the IC50 [1, 2] was > 200 µM.
With `CC1=C(/C=C/C(C)=C/C=C/C(C)=C/C(=O)Nc2ccc(I)cc2)C(C)(C)CCC1` the Activity (MON) was “inactive”.
For `CC1=C(/C=C/C(C)=C/C=C/C(C)=C/C(=O)Nc2ccc(CCO)cc2)C(C)(C)CCC1`, the IC50 [1, 2] was > 50 µM.
In the case of `COc1ccc(NC(=O)/C=C(C)/C=C/C=C(C)/C=C/C2=C(C)CCCC2(C)C)cc1`, the IC50 ([1]; mon) is reported as “Not Active”.
For `CC1=C(/C=C/C(C)=C/C=C/C(C)=C/C(=O)Nc2ccc(O)cc2)C(C)(C)CCC1` (stereo in doubt; 5g) [FENRETINIDE], the IC50 ([1]; mon, read-out: IC50) was 19 µM.
For `CC1=C(/C=C/C(C)=C/C=C/C(C)=C/C(=O)Nc2ccc(O)c(Cl)c2)C(C)(C)CCC1`, the IC50 [1, 2] was 12.5 µM.
Work on `CC1=C(/C=C/C(C)=C/C=C/C(C)=C/C(=O)O)C(C)(C)CCC1` [TRETINOIN] yielded an IC50 [1, 2] of 100 µM.
`CC1=C(/C=C/C(C)=C/C=C/C(C)=C/C(=O)Nc2ccc(O)c(F)c2)C(C)(C)CCC1` showed an IC50 [1, 2] of 8 µM.
For `CC1=C(/C=C/C(C)=C/C=C/C(C)=C/C(=O)Nc2ccc(O)c([N+](=O)[O-])c2)C(C)(C)CCC1`, the Activity (MON) was “inactive”.
In the case of `CC1=C(/C=C/C(C)=C/C=C/C(C)=C/C(=O)Nc2ccc(Br)cc2)C(C)(C)CCC1`, the IC50 [1, 2] is reported as 150 µM.
`CC1=C(/C=C/C(C)=C/C=C/C(C)=C/C(=O)Nc2ccc(F)cc2)C(C)(C)CCC1` gave an IC50 [1, 2] of 150 µM.
For `CC1=C(/C=C/C(C)=C/C=C/C(C)=C/C(=O)Nc2ccc(Cl)cc2)C(C)(C)CCC1`, the IC50 [1, 2] was > 200 µM.
`CC1=C(/C=C/C(C)=C/C=C/C(C)=C/C(=O)Nc2ccc(O)c(I)c2)C(C)(C)CCC1` gave an IC50 [1, 2] of 3 µM.
`CC1=C(/C=C/C(C)=C/C=C/C(C)=C/C(=O)Nc2ccc(O)cc2O)C(C)(C)CCC1` showed an IC50 [1, 2] of 8 µM.
